Consider 18 compounds from PubChem BioAssay AID328 (DTP/NCI, 2004).

Where “and” joins values, the source holds several entries; their conditions need not be identical. Equal entries are not always repeated. Toxic doses and inconclusive results are not listed.

This experiment has as its system BDF1 mice, P388 leukemia ip, median survival T/C. Briefly: NCI In Vivo Anticancer Drug Screen. Data for tumor model P388 Leukemia (intraperitoneal) in B6D2F1 (BDF1) mice. Conditions: endpoint: median survival time, higher = longer survival. Summed up: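 Compound-treated tumour-bearing mice were compared with vehicle-treated controls. Survival was recorded, and the value is the treated-group measurement divided by the control-group measurement (T/C).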

Setting [1] is: dose: 50.0 mg/kg/injection, schedule: Q01DX009 (ip), vehicle: saline.
Setting [2] is: dose: 100.0 mg/kg/injection, schedule: Q01DX009 (ip), vehicle: saline.
Setting [3] is: dose: 200.0 mg/kg/injection, schedule: Q01DX009 (ip), vehicle: saline.
Setting [4] is: dose: 100.0 mg/kg/injection, schedule: Q01DX009 (ip), vehicle: saline with Tween-80.
Where [5] appears, read: dose: 200.0 mg/kg/injection, schedule: Q01DX009 (ip), vehicle: saline with Tween-80.
Where [6] appears, read: dose: 400.0 mg/kg/injection, schedule: Q01DX009 (ip), vehicle: saline with Tween-80.
Where [7] appears, read: dose: 100.0 mg/kg/injection, schedule: Q04DX003 (ip), vehicle: saline with Tween-80.

Take `O=C(c1ccccc1)N1CCC(CCO)C(O)C1Cc1c[nH]c2ccccc12` (stereo unspecified): the T/C reads like this: (dose: 25.0 mg/kg/injection, schedule: Q01DX009 (ip), vehicle: saline) 100 % of control; under setting [1], 96 % of control; (dose: 50.0 mg/kg/injection, schedule: Q04DX003 (ip), vehicle: saline) 96 % of control; under setting [2], 86 % of control; (dose: 100.0 mg/kg/injection, schedule: Q04DX003 (ip), vehicle: saline) 100 % of control; under setting [3], 108 % of control. The T/C is 96 % of control (dose: 200.0 mg/kg/injection, schedule: Q04DX003 (ip), vehicle: saline); 110 % of control (dose: 400.0 mg/kg/injection, schedule: Q01DX009 (ip), vehicle: saline); 98 % of control (dose: 400.0 mg/kg/injection, schedule: Q04DX003 (ip), vehicle: saline).

For `CC1(c2ccco2)NC(=O)N(Cl)C1=O` (stereo unspecified), the T/C runs as follows: under setting [1], 89 % of control; under setting [2], 98 % of control; under setting [3], 105 % of control.

For the compound `CC(=O)OC1CCC2(C)C3=C(CCC2C1)C1C(OC(=O)c2ccccc2[N+](=O)[O-])CC(c2ccc(=O)oc2)C1(C)CC3` (stereo unspecified), the T/C was 102 % of control (dose: 0.25 mg/kg/injection, schedule: Q01DX009 (ip), vehicle: Klucel (hydroxypropylcellulose) (HPC)); 111 % of control (dose: 0.5 mg/kg/injection, schedule: Q01DX009 (ip), vehicle: Klucel (hydroxypropylcellulose) (HPC)); 100 % of control (dose: 1.0 mg/kg/injection, schedule: Q01DX009 (ip), vehicle: Klucel (hydroxypropylcellulose) (HPC)).

Consider `O=C[C@@H](CO)O[C@H](C=O)n1cnc2c(=O)[nH]cnc21`, for which the T/C was 170 % of control (dose: 108.0 mg/kg/injection, schedule: Q04DX003 (ip), vehicle: water); 179 % of control and 184 % of control (dose: 180.0 mg/kg/injection, schedule: Q04DX003 (ip), vehicle: water); 227 % of control and 247 % of control (dose: 300.0 mg/kg/injection, schedule: Q04DX003 (ip), vehicle: water).

As for `CC(=O)Nc1ccc(C(=O)NN)cc1`, the T/C under setting [4] is 108 % of control, the T/C under setting [5] is 105 % of control and the T/C under setting [6] was 97 % of control.

For `OCC1OC(O)C(O)C(O)C1O` (stereo unspecified), the T/C is 124 % of control (dose: 500.0 mg/kg/injection, schedule: Q01DX009 (ip), vehicle: saline); 100 % of control (dose: 500.0 mg/kg/injection, schedule: Q04DX003 (ip), vehicle: saline); 117 % of control (dose: 1000.0 mg/kg/injection, schedule: Q01DX009 (ip), vehicle: saline); 100 % of control (dose: 1000.0 mg/kg/injection, schedule: Q04DX003 (ip), vehicle: saline); 120 % of control (dose: 2000.0 mg/kg/injection, schedule: Q01DX009 (ip), vehicle: saline); 100 % of control (dose: 2000.0 mg/kg/injection, schedule: Q04DX003 (ip), vehicle: saline). Moreover, the T/C was 100 % of control (dose: 4000.0 mg/kg/injection, schedule: Q01DX009 (ip), vehicle: saline) and 102 % of control (dose: 4000.0 mg/kg/injection, schedule: Q04DX003 (ip), vehicle: saline).

For the compound `O=C(CC(=O)Oc1ccc(Cl)cc1Cl)Oc1ccc(Cl)cc1Cl`, the T/C was 100 % of control under setting [4], 100 % of control under setting [5] and 100 % of control under setting [6].

For `Oc1c(Cl)cc(Cl)c2cccnc12`, the T/C by setting is: (dose: 12.5 mg/kg/injection, schedule: Q01DX010 (ip), vehicle: carboxymethylcellulose (CMC)) 104 % of control; (dose: 25.0 mg/kg/injection, schedule: Q01DX010 (ip), vehicle: carboxymethylcellulose (CMC)) 104 % of control; (dose: 50.0 mg/kg/injection, schedule: Q01DX010 (ip), vehicle: carboxymethylcellulose (CMC)) 104 % of control.

Turning to `Cc1ccc([N+](=O)[O-])cc1NC(=O)SCCOC(=O)COc1ccc(Cl)cc1`, the T/C was 95 % of control under setting [7]; 100 % of control (dose: 200.0 mg/kg/injection, schedule: Q04DX003 (ip), vehicle: saline with Tween-80); 109 % of control (dose: 400.0 mg/kg/injection, schedule: Q04DX003 (ip), vehicle: saline with Tween-80).

Take `O=C(CC(O)(C(F)(F)F)C(F)(F)F)c1ccco1`: the T/C reads like this: (dose: 17.0 mg/kg/injection, schedule: Q01DX009 (ip), vehicle: saline) 100 % of control; (dose: 25.0 mg/kg/injection, schedule: Q01DX009 (ip), vehicle: saline with Tween-80) 123 % of control; (dose: 33.0 mg/kg/injection, schedule: Q01DX009 (ip), vehicle: saline) 100 % of control; under setting [1], 100 % of control; (dose: 50.0 mg/kg/injection, schedule: Q04DX003 (ip), vehicle: saline with Tween-80) 120 % of control; (dose: 75.0 mg/kg/injection, schedule: Q01DX009 (ip), vehicle: saline) 100 % of control. The T/C is 123 % of control under setting [4] and 120 % of control under setting [7].

Regarding `COc1cc([N+](=O)[O-])c2c(ccc[n+]2C)c1OC`, the T/C (dose: 50.0 mg/kg/injection, schedule: Q01DX001 (ip), vehicle: saline with Tween-80) was 100 % of control; the T/C (dose: 100.0 mg/kg/injection, schedule: Q01DX001 (ip), vehicle: saline with Tween-80) was 91 % of control; the T/C (dose: 200.0 mg/kg/injection, schedule: Q01DX001 (ip), vehicle: saline with Tween-80) was 112 % of control.

With `COc1c2c(cc3oc4ccccc4c(=O)c13)CCCC2`, the T/C was 100 % of control (dose: 50.0 mg/kg/injection, schedule: Q01DX005 (ip), vehicle: saline with Tween-80); 96 % of control (dose: 100.0 mg/kg/injection, schedule: Q01DX005 (ip), vehicle: saline with Tween-80); 87 % of control (dose: 200.0 mg/kg/injection, schedule: Q01DX005 (ip), vehicle: saline with Tween-80).

Take `O=C(/C=C/c1cccc(Cl)c1)c1ccccc1`: the T/C (dose: 100.0 mg/kg/injection, schedule: Q01DX009 (ip), vehicle: Klucel (hydroxypropylcellulose) (HPC)) is 115 % of control.

Take `CCB1OCC2OB(CC)OC2C2OB(CC)OC2CO1` (stereo unspecified): the T/C by setting is: under setting [1], 100 % of control; under setting [2], 97 % of control; under setting [3], 93 % of control.

With `CS(=O)(=O)OCCC(=O)N1CCN(C(=O)CCOS(C)(=O)=O)CC1`, the T/C is 150 % of control (dose: 11.2 mg/kg/injection, schedule: Q01DX010 (ip), vehicle: saline); 163 % of control (dose: 22.5 mg/kg/injection, schedule: Q01DX010 (ip), vehicle: saline); 150 % of control (dose: 45.0 mg/kg/injection, schedule: Q01DX010 (ip), vehicle: saline); 250 % of control (dose: 90.0 mg/kg/injection, schedule: Q01DX010 (ip), vehicle: saline).

As for `O=C(NCc1cnccn1)c1ccc([N+](=O)[O-])cc1`, the T/C (dose: 50.0 mg/kg/injection, schedule: Q01DX009 (ip), vehicle: saline with Tween-80) is 100 % of control; the T/C under setting [4] is 94 % of control; the T/C under setting [5] was 100 % of control; the T/C under setting [6] is 103 % of control.

Turning to `CC(=O)Oc1cccc2c1C(=O)c1c(OC(C)=O)cccc1C2=O`, the T/C was 101 % of control (dose: 3.13 mg/kg/injection, schedule: Q04DX003 (ip), vehicle: Klucel (hydroxypropylcellulose) (HPC)); 99 % of control (dose: 12.5 mg/kg/injection, schedule: Q04DX003 (ip), vehicle: Klucel (hydroxypropylcellulose) (HPC)); 117 % of control (dose: 25.0 mg/kg/injection, schedule: Q04DX003 (ip), vehicle: Klucel (hydroxypropylcellulose) (HPC)); 108 % of control (dose: 50.0 mg/kg/injection, schedule: Q04DX003 (ip), vehicle: Klucel (hydroxypropylcellulose) (HPC)).

In the case of `COC(=O)C1c2cc3c(cc2C(OC2OC(C)C(OC)C(C)(OC)C2OC)CC1(C)O)C(=O)c1c(O)cc2c(c1C3=O)OC1OC2(C)C(O)C([N+](C)(C)[O-])C1O` (stereo unspecified), the T/C is, setting by setting: (dose: 3.13 mg/kg/injection, schedule: Q01DX010 (ip), vehicle: saline) 150 % of control; (dose: 6.25 mg/kg/injection, schedule: Q01DX010 (ip), vehicle: saline) 165 % of control; (dose: 12.5 mg/kg/injection, schedule: Q01DX010 (ip), vehicle: saline) 95 % of control.
